Assay results taken from patent US20110158980A1, “METHODS TO TREAT AND SCREEN FOR AGENTS TO TREAT OBESITY” (TRUSTEES OF TUFTS COLLEGE, priority 2008, published 2011).

System: 3T3-L1 adipocytes
Assay: Metabolite assays (TG, FFA, glucose, lactate, glycerol) on cell lysates and spent medium
Format: cell-based
Conditions: day 12 post-induction
Description: 3T3-L1 preadipocytes were plated onto 24-well plates and expanded in preadipocyte growth medium consisting of DMEM supplemented with calf serum (10% v/v), penicillin and streptomycin. Medium was replenished every other day. Two days post-confluence, the cells were induced to differentiate using an adipogenic cocktail (1 μg/ml insulin, 0.5 mM isobutylmethylxanthine, and 1 μM dexamethasone) added to a basal medium (DMEM with 10% fetal bovine serum and penicillin/streptomycin). After 48 hrs, the first medium was replaced with a second induction medium consisting of the basal adipocyte medium supplemented with only insulin. […] This basal medium was replenished every other day during the remainder of the culture experiments.
Metabolite measurements were performed both on cell lysates and spent medium samples as described previously (Si Y, Yoon J, Lee K. American journal of physiology 2007; 292:E1637-46). Cells were lysed in situ with an 0.1% SDS buffer and sonicated. Immediately after collection, the spent medium samples were cleaned of cell debris by a brief centrifugation step. Free glycerol, TG and free fatty acids (FFAs) were measured using enzymatic assay kits (SIGMA™). Glucose and lactate concentrations were measured using the methods of Trinder (Trinder P. J Clin Pathol 1969; 22:158-61) and Loomis (Loomis M E. J Lab Clin Med 1961; 57:966-9), respectively. Amino acids were quantified by HPLC using fluorescence-based detection following pre-column derivatization of primary or secondary amines with 6-aminoquinolyl-N-hydroxysuccinimidyl-carbamate (Cohen S A, De Antonis K M. J Chromatogr A 1994; 661:25-34). All metabolite data were normalized by the corresponding cell sample DNA content, which was determined with a fluorescence-based assay using the Hoechst dye.

O=C(O)Cc1ccccc1 [phenylacetate]
Increase of glucose uptake (5 mM phenylacetate): 38% | Increase of glycerol output (5 mM phenylacetate): 1.2 fold | Increase of lactate output (5 mM phenylacetate): more than 2 fold | Reduction of intracellular free fatty acid concentration (5 mM phenylacetate): 9% | Increase of glucose uptake (10 mM phenylacetate): 28% | Increase of glycerol output (10 mM phenylacetate): 1.4 fold | Increase of lactate output (10 mM phenylacetate): more than 2 fold | Reduction of intracellular free fatty acid concentration (10 mM phenylacetate): 17%
